In US20250269043A1, “TARGETED BIFUNCTIONAL DEGRADERS” (YALE UNIVERSITY, priority 2019, published 2025):
Values joined by “and” are separate entries in the source; they are usually repeats but may differ in a detail not shown here. Equal entries are not always repeated.

What was measured:
[1] = Tolerability in mice (body weight, serum AST and ALT); assay type: in vivo
Experimental: FIGS. 93A-93C illustrate that DNP-GN3 and DNP-OH3 are not toxic to mice at all tested concentrations. FIG. 93A: mouse body weight following treatment with DNP-GN3 or DNP-OH3. Statistical differences were analyzed by T test. FIG. 93B: levels of aspartate transaminase (AST) in treated mice. Dashed lines represent the normal range. FIG. 93C: levels of alanine transaminase (ALT) in treated mice. Dashed lines represent the normal range.

[2] = target: T1, ASGPR on the surface of HepG2 cells and α-DNP antibody (Homo sapiens, UniProt P07306+P07307); test: DNP-GN3-mediated ternary complex formation: association of fluorescently labeled α-DNP antibody with HepG2 cells in suspension; assay type: cell-based; conditions: for concentration of DNP-GN3 eliciting half-maximal fluorescence association: FIG. 86A
T1 sequence (P07306 1-291): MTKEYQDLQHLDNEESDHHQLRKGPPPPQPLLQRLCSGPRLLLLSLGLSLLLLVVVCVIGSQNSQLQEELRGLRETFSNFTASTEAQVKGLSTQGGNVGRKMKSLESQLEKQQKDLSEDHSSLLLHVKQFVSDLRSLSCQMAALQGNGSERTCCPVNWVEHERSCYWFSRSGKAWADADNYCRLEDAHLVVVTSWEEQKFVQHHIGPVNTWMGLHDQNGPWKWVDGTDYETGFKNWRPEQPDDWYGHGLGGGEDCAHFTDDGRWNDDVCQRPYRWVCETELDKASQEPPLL
T1 sequence (P07307 1-311): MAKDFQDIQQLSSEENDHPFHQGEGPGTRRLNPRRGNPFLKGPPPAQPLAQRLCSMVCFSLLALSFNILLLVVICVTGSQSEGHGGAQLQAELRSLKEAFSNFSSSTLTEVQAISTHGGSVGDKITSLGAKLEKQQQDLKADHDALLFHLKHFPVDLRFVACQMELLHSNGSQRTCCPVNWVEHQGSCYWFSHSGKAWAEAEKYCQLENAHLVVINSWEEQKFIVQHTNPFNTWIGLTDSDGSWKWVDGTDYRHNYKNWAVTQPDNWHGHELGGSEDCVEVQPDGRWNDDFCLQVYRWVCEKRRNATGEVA
From the text: It was investigated whether DNP-GN3 could mediate the formation of a ternary complex between a fluorescently labeled α-DNP antibody and ASGPR on the surface of immortalized human hepatocyte HepG2 cells in suspension. […] The observed bell-shaped response to DNP-GN3 concentration is consistent with the prozone effect commonly observed in systems wherein a ternary complex is formed.

[3] = test system: HepG2 cells; test: DNP-AF3-mediated α-DNP antibody endocytosis by HepG2 cells (flow cytometry); assay type: cell-based, human; conditions: α-DNP antibody 1 nM
Experimental: The intracellular fluorescence of cells that were incubated at 37° C. with both fluorescently labeled α-DNP antibody and DNP-AF3 for a given amount of time was examined. Cells were then washed, removed from the plate with trypsin, and subjected to flow cytometry.
It was then determined if reagents which inhibit ternary complex formation inhibit endocytosis mediated by DNP-AF3.
Next, whether inhibitors of specific endocytic pathways inhibited α-DNP antibody endocytosis was determined (FIG. 106).

[4] = test system: HepG2 cells; test: Colocalization of endocytosed MIF protein in HepG2 cells; assay type: cell-based, human; conditions: MIF 100 nM, MIF-GN3 200 nM; FIG. 133
Experimental: FIG. 133 illustrates that cells treated with MIF-GN3 and exogenous MIF accumulate MIF punctate in cells. […] MIF was present at a concentration of 100 nM, and MIF-GN3 was present at a concentration of 200 nM.
In order to investigate the subcellular localization of endocytosed MIF protein, colocalization studies were performed in HepG2 cells. After 12 hours of MIF-GN mediated endocytosis, several punctae displaying MIF-derived fluorescence were present in each cell.

[5] = test system: HepG2 cells; test: MIF-GN3-mediated endocytosis of Alexa 488-labeled human MIF by HepG2 cells; conditions: FIG. 131
Experimental: Human MIF protein was fluorescently labeled with Alexa 488 NHS ester, then incubated with HepG2 cells in the presence of varying levels of MIF-GN3.
The ability of MIF-GN3 to mediate MIF endocytosis over a wide range of target protein concentrations was assessed.
Next, inhibitors of various endocytic pathways were utilized to determine if MIF-GN3 mediates MIF endocytosis in a manner consistent with ASGPR (FIG. 132).

[6] = target: T2, mouse MIF (Mus musculus, UniProt P34884); test: Depletion of endogenous mouse MIF in vivo; parameters: species or system mice; conditions: single dose of 10 mpk; FIG. 137
T2 construct: mediate the depletion of endogenous mouse MIF in vivo; from tissue; host or cells: mouse serum, in vivo
Experimental: In order to confirm that mice injected with one or ten mpk MIF-GN3 had received the injection, and that the observed stability of MIF concentrations in MIF-GN3 treated mice was not the result of injection error, 200 μg of α-DNP antibody was coinjected with the MIF protein in this experiment. […] An investigation of the ability of MIF-GN3 to mediate the depletion of endogenous mouse MIF in vivo was next undertaken. Mice were treated with either PBS or 10 mpk of MIF-GN3. […] One possible explanation for this finding is that MIF protein may be synthesized rapidly, and any increase in degradation mediated by MIF-GN3 may not be of a large enough magnitude to impact the protein's level in serum.

For `CC(=O)NC1C(OCCOCCOCCNC(=O)CCOCC(COCCC(=O)NCCOCCOCCOC2OC(CO)C(O)C(O)C2NC(C)=O)(COCCC(=O)NCCOCCOCCOC2OC(CO)C(O)C(O)C2NC(C)=O)NC(=O)CNC(=O)COCCOCCOCCNc2ccc([N+](=O)[O-])cc2[N+](=O)[O-])OC(CO)C(O)C1O` (stereo not shown) [DNP-GN3], the “differences in body weight or serum liver enzyme levels between control and treatment groups” value ([1]; doses up to 100 mpk, FIGS. 93A-93C) was “no significant differences”, the well-tolerated dose ([1]; mice) was ≤ 100 mpk and the “concentration of maximal ternary complex formation” value ([2]; DNP-GN3) was 20 nM and 40 nM. The “concentration of DNP-GN3 eliciting half-maximal fluorescence association” value ([2]; higher of the two half-maximal concentrations of the bell-shaped response (prozone effect)) was 0.12 µM, the “concentration of DNP-GN3 eliciting half-maximal fluorescence association” value ([2]; lower of the two half-maximal concentrations of the bell-shaped response) was 0.0074 µM and the “uptake of α-DNP antibody at low target protein concentration” value [3] was “not effective”.
In the case of `CC(=O)N[C@H]1[C@H](OCCOCCOCCNC(=O)CCOCC(COCCC(=O)NCCOCCOCCO[C@@H]2O[C@H](CO)[C@H](O)[C@H](O)[C@H]2NC(C)=O)(COCCC(=O)NCCOCCOCCO[C@@H]2O[C@H](CO)[C@H](O)[C@H](O)[C@H]2NC(C)=O)NC(=O)CNC(=O)CCCOc2ccc3nc(-c4cn(-c5ccc(O)c(F)c5)nn4)ccc3c2)O[C@H](CO)[C@H](O)[C@@H]1O` [MIF-GN3], the “colocalization of MIF signal with LAMP2” value [4] is reported as “strong colocalization”, the “fluorescence of cells relative to cells not treated with bifunctional molecule” value ([5]; MIF protein 10 nM, 200 nM MIF-GN3) is reported as 4 fold and the “MIF uptake at high concentration compared to lower concentrations” value ([5]; MIF protein 100 nM, MIF-GN3 5.00 μM) is reported as “slight decrease in MIF uptake”. For the same compound, the “mouse MIF concentrations in serum” value [6] was “No significant decrease”.
